In the test the target is Metabotropic glutamate receptor 8 (Rattus norvegicus) (UniProt P70579). The experiment in a line: potentiation of glutamate response at mGlu8 – cell-based, rat receptor, GIRK thallium flux, confirmation (AID 743462).

Each structure is given as a SMILES string.

Chain of Metabotropic glutamate receptor 8 (Rattus norvegicus) (P70579 whole entry, looked up): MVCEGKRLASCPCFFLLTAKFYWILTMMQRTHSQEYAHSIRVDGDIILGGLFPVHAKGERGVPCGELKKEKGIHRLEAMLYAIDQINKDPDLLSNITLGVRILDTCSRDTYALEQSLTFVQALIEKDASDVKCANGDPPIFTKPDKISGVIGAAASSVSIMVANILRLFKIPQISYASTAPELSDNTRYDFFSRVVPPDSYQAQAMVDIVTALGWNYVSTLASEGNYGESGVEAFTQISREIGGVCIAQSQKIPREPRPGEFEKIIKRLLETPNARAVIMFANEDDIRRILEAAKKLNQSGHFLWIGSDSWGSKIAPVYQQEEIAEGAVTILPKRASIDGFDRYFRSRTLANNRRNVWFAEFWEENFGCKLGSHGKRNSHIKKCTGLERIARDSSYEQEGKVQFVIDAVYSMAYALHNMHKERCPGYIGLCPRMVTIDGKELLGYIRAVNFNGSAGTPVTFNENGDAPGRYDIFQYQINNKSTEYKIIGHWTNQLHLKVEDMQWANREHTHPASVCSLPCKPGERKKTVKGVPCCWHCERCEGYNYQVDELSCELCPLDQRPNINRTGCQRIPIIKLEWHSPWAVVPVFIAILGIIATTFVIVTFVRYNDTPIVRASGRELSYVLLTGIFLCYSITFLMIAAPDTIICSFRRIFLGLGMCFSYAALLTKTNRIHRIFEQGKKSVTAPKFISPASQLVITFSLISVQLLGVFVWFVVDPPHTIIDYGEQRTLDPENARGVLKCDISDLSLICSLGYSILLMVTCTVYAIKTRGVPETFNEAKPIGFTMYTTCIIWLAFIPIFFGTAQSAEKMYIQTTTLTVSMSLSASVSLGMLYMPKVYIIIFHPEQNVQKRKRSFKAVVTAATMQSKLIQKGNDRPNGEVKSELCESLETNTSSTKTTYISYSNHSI

Turning to `COC(=O)c1ccc(-n2c(C)cc(C(=O)CSc3ccc(NC(C)=O)cc3)c2C)cc1`, the EC50 is 1800 nM.

One may read the EC50 as the midpoint of the concentration-response curve.
